Assay results: patent US20260174858A1, “TARGETING THE m6A MRNA DEMETHYLASE FTO” (University of Virginia Patent Foundation, priority 2022, published 2026)
d = 2'-deoxy (DNA); r = 2'-OH (RNA); {P} = phosphate

Tested on: mouse BMDMs
Assay: VEGFA release in mouse BMDMs (ELISA)
Type: cell-based
Conditions: ELISA
Method: Primary WT or mutant mouse bone marrow derived macrophages (BMDMs) were isolated as previously described (4). BMDMs were cultured in IMDM (Gibco) basal medium containing 10% fetal bovine serum (FBS), 30% L929 supernatants, nonessential amino acids, sodium pyruvate, 2-mercaptoethanol, and antibiotics. THP-1 cells were cultured in RPMI 1640 medium with 10% FBS and antibiotics. Human RPE cells were isolated as previously described and cultured in DMEM medium with 10% FBS and antibiotics. All cells were maintained at 37° C. in a 5% CO2 environment.
The RPE-choroid complex was isolated from mouse eyes on day 3 after laser injury and treatment with FTO inhibitor or vehicle. Eye tissues were lysed by sonication with immunoprecipitation assay (RIPA) buffer (Sigma-Aldrich, R0278, USA) containing protease inhibitor (Sigma-Aldrich, 11836170001, USA), on ice for 15 minutes. The lysate was centrifuged at 20,000×g for 15 minutes at 4° C., and total protein in the lysates was quantified using the Thermo Scientific™ Pierce™ BCA™ Protein Assay (Fisher Scientific, PI23225, USA). VEGFA protein levels in the supernatants were measured by VEGF DuoSet ELISA (R&D Systems, DY493, USA), following the manufacturer's instructions. Mouse BMDMs or human THP-1 cells (5×10^5 cells per well) were plated into six-well plates in complete medium and allowed to adhere overnight. Cells were then incubated for 24 hours in the absence or presence of various doses of FTO inhibitor or METTL3 inhibitors (STM2457, Selleck Chemicals). […] The siRNAs (siFto: 5′-P.G.A.G.G.A.U.C.C.A.A.G.G.C.A.A.A.G.A.U.dT.dT 3′ (SEQ ID NO: 38); siCtrl: 5′-P.U.A.A.G.G.C.U.A.U.G.A.A.G.A.G.A.U.dT.dT 3′; SEQ ID NO: 39), were designed and synthesized by GE Healthcare Dharmacon, were transfected twice with BMDMs by using DharmaFECT 4 Transfection Reagent (Dharmacon, T-2004, USA). VEGFA levels in the supernatants were measured by mouse or human VEGF DuoSet ELISA (R&D Systems, DY493 or DY293B, USA), following the manufacturer's instructions.

STM2457
VEGFA release with METTL3 inhibitor (various doses, 24 hours): dose-dependent increase in VEGFA release

siFto: siFto: 5′-P.G.A.G.G.A.U.C.C.A.A.G.G.C.A.A.A.G.A.U.dT.dT 3′ (SEQ ID NO: 38), Dharmacon (sense GAGGAUCCAAGGCAAAGAUTT; sugars from the 5' end r19 d2, 5' {P}, backbone not given here)
VEGFA release after Fto knockdown (BMDMs transfected with siRNA targeting Fto vs control): significantly dampened macrophage mediated VEGFA release
